Tests used:
[1] = tested on: breast adenocarcinoma (MCF-7) cell line; experiment: MTT cell viability assay, 72 h, MCF-7; format: cell-based, human; conditions: for SI (selectivity index): GI50(184B5)/GI50(MCF-7); for TGI: concentration that completely inhibits cell growth; for LD50: concentration that kills 50% of cells
Description: (§1) The novel synthetic compounds VA2J, VA4J, VA6G, VA6H, VA6I and VA6J were tested in breast adenocarcinoma (MCF-7) and non-malignant mammary-gland-derived (184B5) cell lines to be able to establish their potency and selectivity. The reference drug used was methylseleninic acid (MSA) as a Se-containing structure with promising in vitro and in vivo results against different tumour types. Results are expressed as the concentration that inhibits 50% cell growth (GI50), the concentration that inhibits completely cell growth (TGI) and the concentration that kills 50% of cells (LD50). The selectivity index (SI) is calculated as GI50(184B5)/GI50(MCF-7).
(§2) Cell lines were purchased from the American Type Culture Collection (ATCC, Barcelona, Spain). MCF7 cell lines were grown in Roswell Park Memorial Institute (RPMI) medium (Gibco, Madrid, Spain) supplemented with 10% fetal bovine serum (FBS; Gibco), 100 units/mL penicillin and […] (Gibco, Madrid, Spain). 184B5 cells were grown in DMEM/F12 medium supplemented with 5% FBS, 1x ITS (Lonza, Barcelona, Spain), 100 nM hydrocortisone (Sigma Aldrich, Madrid, Spain), 2 mM sodium pyruvate (Lonza), 20 ng/mL EGF (Sigma Aldrich, Madrid, Spain), 0.3 nM trans-retinoic acid (Sigma-Aldrich) 100 units/mL penicillin and […]. Cells were maintained at 37 °C and 5% CO2.
(§3) Compounds were dissolved in DMSO at a concentration of 0.01 M. Serial dilutions were prepared with non-supplemented medium. The cytotoxic effect of each compound was tested at eight different concentrations ranging between 0.01 and 100 µM.
(§4) A total of 10^4 cells/well in 96 well-plates were treated with either DMSO or increasing concentrations of the corresponding compound for 72 h and cell viability was determined using the MTT (3-(4,5-dimethylthiazol-2-yl)-2,5-diphenyltetrazolium bromide) (Sigma Aldrich, Madrid, Spain) assay. Briefly, cells were incubated with 50 µL of MTT (2 mg/mL stock) for 4 h. The medium was then removed by aspiration and the formazan crystals were dissolved in 150 µL of DMSO. The absorbance was measured at 550 nm in a microplate reader (Sunrise, Tecan, Männedorf, Switzerland). […] Data were obtained from at least three independent experiments performed in quadruplicate.

[2] = tested on: non-malignant mammary-gland-derived (184B5) cell line; experiment: MTT cell viability assay, 72 h, 184B5; format: cell-based; conditions: 184B5, 72 h
Description: as §1, §2, §3, §4

[3] = DSC successive melting-recrystallization cycles, polymorphic behaviour; format: physicochemical; design: key: I: Compounds that show a polymorphic phase transition into an amorphous or mainly amorphous solid form after a first melting–cooling scan; II: Compounds that change into a new polymorphic form with a different Tonset of fusion than the one observed at the first melting–recrystallization scan after cooling; III: These compounds show a fusion process without modifications in the thermal behaviour after an initial fusion–recrystallization cycle; IV: Compounds that show recrystallization or other types of phase transition of the original form into another crystalline one in the first heat scan; V: Compounds without fusion processes at the range of temperatures studied; *: fusion with decomposition; conditions: 10 °C/min
Description: To establish general polymorphic behaviours, samples of all the compounds synthetized (Figure 1) were exposed to successive cycles of melting–recrystallization using DSC. Calorimetric analyses were performed before the beginning of the degradation process (Table 6). […] This behaviour was shown by several compounds: VA1C, VA2E, VA8E, series H, VA6I, VA8J, VA6M and VA8M. DSC and PXRD results of compound VA7H are shown as supplementary material (Figures S1 and S2 and Table S1). • Behaviour II—Compounds that change into a new polymorphic form with a different Tonset of fusion than the one observed at the first melting–recrystallization scan after cooling. These compounds are VA7E and VA8O. DSC and PXRD results of compound VA7E are shown as supplementary material (Figures S3 and S4, Table S2). • Behaviour III—These compounds show a fusion process without modifications in the thermal behaviour after an initial fusion–recrystallization cycle. Consequently, there is no evidence of polymorphic behaviour. The compounds VA2C, VA2M, VA4J and VA5O belong to this group. DSC and PXRD results of compound VA2M are shown as supplementary material (Figures S5 and S6, Table S3). • Behaviour IV—Compounds that show recrystallization or other types of phase transition of the original form into another crystalline one in the first heat scan. In the successive cycles of melting–recrystallization, the new form may not alter its crystalline form or transit to another polymorphic form. Compounds VA6E, VA7J and VA7M show this behaviour. • Behaviour V—Compounds without fusion processes at the range of temperatures studied.
For calorimetric studies a Perkin–Elmer DSC diamond calibrated with indium and zinc (provided by Perkin–Elmer (Perkin Elmer, Inc. Watham, MA, USA) and fabricated according to guideline ISO35) at 10 °C·min^−1 and nitrogen flow of 20 mL·min^−1 was employed. The gas connected to the equipment was nitrogen with a purity of 99.999%. Calorimetric analyses were carried out in aluminium capsules for volatilities of 10 μL, at a heating rate of 10 °C·min^−1, using a sample of approximately 3 mg, in order to establish the Tonset, Tmax and the enthalpy of fusion ∆Hf.
The calorimetric analyses started with the study of the thermal behaviour of the compounds before the process of degradation in order to evidence the possible existence of polymorphism. For this preliminary study, samples of all the compounds were exposed to successive cycles of heating–cooling. All samples were heated from 50 °C to temperatures 15–20 °C below Tonset of the degradation process, in order to ensure that compounds were not degraded (Table 6). After melting the samples, they were left at room temperature for enough time to allow the compounds to recrystallize before the successive thermal process. Additional cycles of heating–cooling were performed if polymorphism was detected.

[4] = Thermogravimetric (TG) analysis of thermal stability; format: physicochemical; conditions: nitrogen, 50 to 350 °C, 10 °C/min
Description: The thermogravimetric (TG) studies were carried out with a Perkin–Elmer TGA-7 (Perkin Elmer, Inc. Watham, MA, USA) which was calibrated with alumel and nickel at 10 °C·min^−1. The calibration of the oven temperatures was carried out automatically and mass calibrated with a certified sample of 10 mg (ASTM E617, provided by Perkin Elmer, Inc. Watham, MA, USA). TG analyses were performed under a nitrogen atmosphere with a gas flow of 40 mL·min^−1, from 50 to 350 °C, at a heating rate of 10 °C·min^−1, using a sample of approximately 3 mg, in order to obtain the values of the Tonset and Tmax of the degradation process as well as any associated mass loss.

Compound | DSC Behaviour (polymorphic/calorimetric behaviour) [3] | TG To (Tonset of thermal degradation) [4] [°C] | other results
C[Se](=O)O [MSA, methylseleninic acid, reference compound] |  |  | SI (selectivity index) [1]: 1.40; TGI ([1]; MCF-7, 72 h, MTT): 3.43 µM; GI50 ([1]; MCF-7, 72 h, MTT, concentration that inhibits 50% cell growth): 1.28 µM; LD50 ([1]; MCF-7, 72 h, MTT): >100 µM; GI50 [2]: 1.79 µM; LD50 [2]: >100 µM; TGI [2]: 3.84 µM
[SeH]c1nc2ccccc2s1 [VA1C] | I | 218.4 | 
[SeH]Cc1c2ccccc2nc2ccccc12 [VA1D] | V | 244.7 | 
Cl.N=C(N)Sc1nc2ccccc2nc1S [VA2J, 3-Mercaptoquinoxalin-2-yl Carbamimidothioate Hydrochloride] | * | 199.2 | SI (selectivity index) [1]: 5.66; TGI ([1]; MCF-7, 72 h, MTT): 13.90 µM; LD50 ([1]; MCF-7, 72 h, MTT): 44.02 µM; LD50 [2]: 20.48 µM; TGI [2]: 15.97 µM; GI50 ([2]; Homo sapiens): 12.5 µM
O=C1c2ccccc2C(=O)N1CS [VA2M] | III | 166.0 | 
Cc1noc(C)c1C[Se]C#N [VA5O] | III | 141.7 | 
N#C[Se]Cc1ccc(-n2cccc2)cc1 [VA5P] | * | 149.4 | 
N#CSCc1ccc2c(c1)C(=O)c1ccccc1C2=O [VA6G, (9,10-Dioxo-9,10-dihydroanthracen-2-yl)methyl Thiocyanate] | V | 238.3 | SI (selectivity index) [1]: 3.99; TGI ([1]; MCF-7, 72 h, MTT): 23.95 µM; LD50 ([1]; MCF-7, 72 h, MTT): 67.27 µM; LD50 [2]: 64.84 µM; TGI [2]: 34.32 µM; GI50 ([2]; Homo sapiens): 14.3 µM
N=C(N)[Se]Cc1cc2c(cc1Br)OCO2 [VA7E] | II | 205.2 | 
N=C(N)[Se]Cc1ccc([N+](=O)[O-])o1 [VA7F] | * | 214.7 | 
N=C(N)[Se]Cc1ccc2c(c1)C(=O)c1ccccc1C2=O [VA7G] | V | 198.2 | 
N=C(N)[Se]Cc1ccc2ccccc2n1 [VA7H] | I | 145.8 | 
COc1cc2oc(=O)cc(C[Se]C(=N)N)c2cc1OC [VA7I] | * | 226.4 | 
N=C(N)[Se]CN1C(=O)c2ccccc2C1=O [VA7M] | IV | 255.8 | 
Cc1noc(C)c1C[Se]C(=N)N [VA7O] | V | 185.9 | 
N=C(N)[Se]Cc1ccc(-n2cccc2)cc1 [VA7P] | * | 175.8 | 
Cc1noc(C)c1CSC(=N)N [VA8O] | II | 201.8 | 

Second part, led by results:

DSC Behaviour (polymorphic/calorimetric behaviour) [3] | TG To (Tonset of thermal degradation) [4] [°C] | Compound | other results
V | 263.3 | Sc1ccnc(S)n1 [VA2B] | 
III | 224.7 | Sc1nc2ccccc2s1 [VA2C] | 
I | 266.2 | SCc1cc2c(cc1Br)OCO2 [VA2E] | 
V | 103.5 | CSc1ccnc(SC)n1 [VA4B] | 
V | 131.8 | CSc1nc2ccccc2s1 [VA4C] | 
I | 105.6 | CSc1ccc2ccccc2n1 [VA4H] | 
V | 205.0 | N#CSCc1c2ccccc2nc2ccccc12 [VA6D] | 
I | 164.8 | N#CSCN1C(=O)c2ccccc2C1=O [VA6M] | 
* | 193.1 | N=C(N)SCc1c2ccccc2nc2ccccc12 [VA8D] | 
I | 215.1 | N=C(N)SCc1cc2c(cc1Br)OCO2 [VA8E] | 
* | 190.8 | N=C(N)SCc1ccc([N+](=O)[O-])o1 [VA8F] | 
V | 243.7 | N=C(N)SCc1ccc2c(c1)C(=O)c1ccccc1C2=O [VA8G] | 
I | 190.2 | N=C(N)SCc1ccc2ccccc2n1 [VA8H] | 
* | 272.4 | COc1cc2oc(=O)cc(CSC(=N)N)c2cc1OC [VA8I] | 
I | 251.05 | N=C(N)SCc1nc2ccccc2nc1CSC(=N)N [VA8J] | 
I | 233.1 | N=C(N)SCN1C(=O)c2ccccc2C1=O [VA8M] | 
* | 199.8 | N=C(N)SCc1ccc(-n2cccc2)cc1 [VA8P] | 

— article PMC6152329, “Antitumoural Sulphur and Selenium Heteroaryl Compounds: Thermal Characterization and Stability Evaluation” (Molecules : A Journal of Synthetic Chemistry and Natural …, 2017)
